Reference: US10844049B2, “GLP-1R agonists and uses thereof” (QILU REGOR THERAPEUTICS INC., priority 2018, dated 2020)

These compounds were tested against GLP1R (Homo sapiens, UniProt P43220) (assay: GLP1R cAMP HTRF assay, HEK293/GLP-1R/CRE/Luc (HEK293T cells)). Conditions: read-out: EC50.
Assay type: cell-based
Method: GLP-1R-mediated agonist activity was determined with a cell-based functional assay utilizing an HTRF (Homogeneous Time-Resolved Fluorescence) cAMP detection kit (cAMP Dynamic 2 Assay Kit; CisBio cat #62AM4PEC) that measures cAMP levels in the cell. The method is a competitive immunoassay between native cAMP produced by the cells and exogenous cAMP labeled with the dye d2. The tracer binding is visualized by a mAb anti-cAMP labeled with Cryptate. The specific signal (i.e., energy transfer) is inversely proportional to the concentration of cAMP in either standard or experimental sample.
A cell line stably expressing the receptor was isolated.
Varying concentrations of each compound to be tested (in DMSO) were diluted in DMSO to obtain 200× compound working solution first and then 50 nl compounds were added to a white 384-well assay plate (Greiner 784075) with ECHO. The final DMSO concentration was 0.5%. The compound concentration range may be adjusted at any time.
Cells were removed from cryopreservation, re-suspended in 5 mL of Dulbecco's Phosphate Buffered Saline (DPBS-Sigma Cat # D8537) and centrifuged at 900 g for 5 min at 22° C. The cell pellet was then re-suspended in 1 mL of assay buffer [DPBS with 500 μM IBMX (Sigma #15879) and 0.1% BSA (Sigma # A1933). IBMX and BSA were freshly added on the day of assay]. A 10 μL sample of the cell suspension was counted on an Invitrogen Countess II to determine cell viability and cell count per mL. The remaining cell suspension was then adjusted with assay buffer to deliver 1000 viable cells per well using a Matrix Combi Multidrop reagent dispenser. 10 μL cell suspensions were added to each well of the assay plate which already contains compound. The plate was sealed and incubated at 37° C. with 5% CO2 for 30 minutes.
Following the 30 minute incubation, 5 μL of labeled d2 cAMP and 5 μL of anti-cAMP antibody (both diluted 1:20 in cell lysis buffer; as described in the manufacturer's assay protocol) were added to each well of the assay plate. The plates w ere then incubated at room temperature and after 60 minutes, changes in the HTRF signal were read with an Envision multi-label plate reader using excitation of 330 nm and emissions of 615 and 665 nm. Raw data were converted to nM cAMP by interpolation from a cAMP standard curve (as described in the manufacturer's assay protocol) and the percent effect was determined relative to a saturating concentration of the full agonist GLP-17-37 (10 nM) included on each plate. EC50 determinations were made from agonist dose-response curves analyzed with a curve fitting program using a 4-parameter logistic dose response equation.
3) Anti-cAMP antibody-cryptate working solution preparation • c) The lyophilisate was reconstituted with appropriate amount of distilled water according to manufacturer's instruction to make working stock which can be aliquoted and frozen (−20° C.). • d) The working stock solution was diluted 1:20 in the conjugate and lysis buffer before use. Procedures Procedures for Cell Suspension Preparation • 1. Frozen cells were thawed very briefly in a 37° C. water bath under sterile conditions until just before ice completely melt (for about 1 minute) with a continuous agitation. Caution was taken because a longer incubation could result in cell death. • 2. DMSO was removed from the media by carefully transferring thawed cells to a sterile 15/50 mL tube, filling a tube with 10-50 mL of complete media pre-warmed to 37° C., and allowing the cells to sit 5 min before centrifuging at 900 rpm for 5 minutes for cell collection. • 3. The cells were resuspended with assay buffer. • 4. For stable GLP1-R assay, the optimized cell density is 1000 cells/well. Caution was taken because cell density optimization was crucial and needed to be optimized in different laboratories. The level of cAMP produced by the cells must fall within the linear range of the standard curve.

GLP1R, sequence (P43220 24-463): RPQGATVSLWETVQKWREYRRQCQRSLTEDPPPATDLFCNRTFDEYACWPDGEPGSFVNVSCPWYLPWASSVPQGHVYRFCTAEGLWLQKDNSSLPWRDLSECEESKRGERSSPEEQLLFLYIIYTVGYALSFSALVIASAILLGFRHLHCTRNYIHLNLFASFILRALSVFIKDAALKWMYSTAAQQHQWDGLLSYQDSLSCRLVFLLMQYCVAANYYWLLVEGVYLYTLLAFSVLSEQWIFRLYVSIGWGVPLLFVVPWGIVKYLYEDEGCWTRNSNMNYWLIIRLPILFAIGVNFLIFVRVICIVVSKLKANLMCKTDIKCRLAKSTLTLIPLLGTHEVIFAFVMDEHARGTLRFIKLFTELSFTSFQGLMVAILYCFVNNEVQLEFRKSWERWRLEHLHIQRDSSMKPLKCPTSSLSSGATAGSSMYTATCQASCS

Row | EC50 [nM] | SMILES
1 | > 1000 | CN(Cc1ccc(Cl)cc1F)c1cccc(N2CCN(Cc3nc4ccc(C(=O)O)cc4n3C[C@@H]3CCO3)CC2)n1 [Compound 2, (S)-2-((4-(6-((4-chloro-2-fluorobenzyl)(methyl)amino)pyridin-2-yl)piperazin-1-yl)methyl)-1-(oxetan-2-ylmethyl)-1 h-benzo[d]imidazole-6-carboxylic acid]
2 | > 1000 | Cn1ccnc1Cn1c(CN2CCN(c3ccc4c(n3)N(Cc3ccc(Cl)cc3F)CCO4)CC2)nc2ccc(C(=O)O)cc21 [Compound 5, 2-((4-(4-(4-chloro-2-fluorobenzyl)-3,4-dihydro-2 h-pyrido[3,2-b][1,4]oxazin-6-yl)piperazin-1-yl)methyl)-1-((l-methyl-1 h-imidazol-2-yl)methyl)-1 h-benzo[d] imidazole-6-carboxylic acid]
3 | ≤ 150 | O=C(O)c1ccc2nc(CN3CC4CC3CN4c3cccc(OCc4ccc(Cl)cc4F)n3)n(C[C@@H]3CCO3)c2c1 (stereo partly drawn) [Compound 16, 2-((5-(6-((4-chloro-2-fluorobenzyl)oxy)pyridin-2-yl)-2,5-diazabicyclo[2.2.1]heptan-2-yl)methyl)-1-(((S)-oxetan-2-yl)methyl)-1 h-benzo[d]imidazole-6-carboxylic acid]
4 | > 1000 | O=C(O)c1ccc2nc(CN3CC4CCC3CN4c3cccc(OCc4ccc(Cl)cc4F)n3)n(C[C@@H]3CCO3)c2c1 (stereo partly drawn) [Compound 17, 2-((5-(6-((4-chloro-2-fluorobenzyl)oxy)pyridin-2-yl)-2,5-diazabicyclo[2.2.2]octan-2-yl)methyl)-1-(((S)-oxetan-2-yl)methyl)-1 h-benzo[d]imidazole-6-carboxylic acid]
5 | ≤ 1000 | O=C(O)c1ccc2nc(CN3CC=C(c4ccc(=O)n(CCc5ccc(Cl)cc5F)n4)CC3)n(C[C@@H]3CCO3)c2c1 [Compound 20, (S)-2-((4-(1-(4-chloro-2-fluorophenethyl)-6-oxo-1,6-dihydropyridazin-3-yl)-5,6-dihydropyridin-1(2H)-yl)methyl)-1-(oxetan-2-ylmethyl)-1 h-benzo[d]imidazole-6-carboxylic acid]
6 | ≤ 150 | O=C(O)c1ccc2nc(CN3CCC(c4ccc5ccn(Cc6ccc(Cl)cc6F)c5n4)CC3)n(C[C@@H]3CCO3)c2c1 [Compound 24, (S)-2-((4-(1-(4-chloro-2-fluorobenzyl)-1H-pyrrolo[2,3-b]pyridin-6-yl)piperidin-1-yl)methyl)-1-(oxetan-2-ylmethyl)-1H-benzo[d]imidazole-6-carboxylic add]
7 | ≤ 150 | O=C(O)c1ccc2nc(CN3CC=C(c4ccc5ccn(Cc6ccc(Cl)cc6F)c5n4)CC3)n(C[C@@H]3CCO3)c2c1 [Compound 25, (S)-2-((4-(1-(4-chloro-2-fluorobenzyl)-1 h-pyrrolo[2,3-b]pyridin-6-yl)-5,6-dihydropyridin-1(2H)-yl)methyl)-1-(oxetan-2-ylmethyl)-1 h-benzo[d]imidazole-6-carboxylic acid]
8 | > 1000 | O=C(O)c1ccc2nc(CN3CCC(c4ccc5ccn(Cc6ccc(Cl)cc6F)c5c4)CC3)n(C[C@@H]3CCO3)c2c1 [Compound 26, (S)-2-((4-(1-(4-chloro-2-fluorobenzyl)-1 h-indol-6-yl)piperidin-1-yl)methyl)-1-(oxetan-2-ylmethyl)-1 h-benzo[d]imidazole-6-carboxylic acid]
9 | ≤ 150 | O=C(O)c1ccc2nc(CN3CC=C(c4cc(OCc5ccc(Cl)cc5F)ccn4)CC3)n(C[C@@H]3CCO3)c2c1 [Compound 30, (S)-2-((4-((4-chloro-2-fluorobenzyl)oxy)-3′,6′-dihydro-[2,4′-bipyridin]-1′(2′H)-yl)methyl)-1-(oxetan-2-ylmethyl)-1 h-benzo[d]imidazole-6-carboxylic add]

Second part, the compound before the results:

Row | SMILES | EC50 [nM]
10 | O=C(O)c1ccc2nc(CN3CCN(c4ccc5c(n4)N(Cc4ccc(Cl)cc4F)CCC5)CC3)n(C[C@@H]3CCO3)c2c1 [Compound 3, (S)-2-((4-(8-(4-chloro-2-fluorobenzyl)-5,6,7,8-tetrahydro-1,8-naphthyridin-2yl)piperazin-1-yl)methyl)-1-(oxetan-2-ylmethyl)-1 h-benzo[d]imidazole-6-carboxylic acid] | > 1000
11 | O=C(O)c1ccc2nc(CN3CCN(c4ccc5c(n4)N(Cc4ccc(Cl)cc4F)CCO5)CC3)n(C[C@@H]3CCO3)c2c1 [Compound 4, (S)-2-((4-(4-(4-chloro-2-fluorobenzyl)-3H-dihydro-2H-pyrido[3,2-b][1H]oxazin-6-yl)piperazin-1-yl)methyl)-1-(oxetan-2-ylmethyl)-1H-benzo[d]imidazole-6-carboxylic acid] | > 1000
12 | O=C(O)c1ccc2nc(CN3CCN(c4ccc(=O)n(CCc5ccc(Cl)cc5F)n4)CC3)n(C[C@@H]3CCO3)c2c1 [Compound 6, (S)-2-((4-(1-(4-chloro-2-fluorophenethyl)-6-oxo-1,6-dihydropyridazin-3-yl)piperazin-1-yl)methyl)-1-(oxetan-2-ylmethyl)-1 h-benzo[d]imidazole-6-carboxylic add] | > 1000
13 | O=C(O)c1ccc2nc(CN3CCN(c4ccc(=O)n(Cc5ccc(Cl)cc5F)n4)CC3)n(C[C@@H]3CCO3)c2c1 [Compound 7, (S)-2-((4-(1-(4-chloro-2-fluorobenzyl)-6-oxo-1,6-dihydropyridazin-3-yl)piperazin-1-yl)methyl)-1-(oxetan-2-ylmethyl)-1 h-benzo[d]imidazole-6-carboxylic acid] | > 1000
14 | O=C(O)c1ccc2nc(CN3CCN(c4cccn(CCc5ccc(Cl)cc5F)c4=O)CC3)n(C[C@@H]3CCO3)c2c1 [Compound 8, (S)-2-((4-(1-(4-chloro-2-fluorophenethyl)-2-oxo-1,2-dihydropyridin-3-yl)piperazin-1-yl)methyl)-1-(oxetan-2-ylmethyl)-1h-benzo[d]imidazole-6-carboxylic acid] | > 1000
15 | O=C(O)c1ccc2nc(CN3CCN(c4ccc5ccn(Cc6ccc(Cl)cc6F)c5n4)CC3)n(C[C@@H]3CCO3)c2c1 [Compound 13, (S)-2-((4-(1-(4-chloro-2-fluorobenzyl)-1 h-pyrrolo[2,3-b]pyridin-6-yl)piperazin-1-yl)methyl)-1-(oxetan-2-ylmethyl)-1 h-benzo[d]imidazole-6-carboxylic add] | ≤ 150
16 | O=C(O)c1ccc2nc(CN3CCN(c4ccc5ccn(Cc6ccc(Cl)cc6F)c5c4)CC3)n(C[C@@H]3CCO3)c2c1 [Compound 14, (S)-2-((4-(1-(4-chloro-2-fluorobenzyl)-th-indol-6-yl)piperazin-1-yl)methyl)-1-(oxetan-2-ylmethyl)-1 h-benzo[d]imidazole-6-carboxylic acid] | > 1000
17 | O=C(O)c1ccc2nc(CN3CCCN(c4cccc(OCc5ccc(Cl)cc5F)n4)CC3)n(C[C@@H]3CCO3)c2c1 [Compound 15, (S)-2-((4-(6-(4-chloro-2-fluorobenzyloxy)pyridin-2-yl)-1,4-diazepan-1-yl)methyl)-1-(oxetan-2-ylmethyl)-1 h-benzo[d]imidazole-6-carboxylic acid] | ≤ 150
18 | O=C(O)c1ccc2nc(CN3CC=C(c4ccc5ccn(Cc6ccc(Cl)cc6F)c5c4)CC3)n(C[C@@H]3CCO3)c2c1 [Compound 27, (S)-2-((4-(1-(4-chloro-2-fluorobenzyl)-1 h-indol-6-yl)-5,6-dihydropyridin-1(2H)-yl)methyl)-1-(oxetan-2-ylmethyl)-1 h-benzo[d]imidazole-6-carboxylic add] | > 1000
19 | O=C(O)c1ccc2nc(CN3CC=C(c4ccnc(OCc5ccc(Cl)cc5F)c4)CC3)n(C[C@@H]3CCO3)c2c1 [Compound 31, (S)-2-((2′-((4-chloro-2-fluorobenzyl)oxy)-3,6-dihydro-[4,4′-bipyridin]-1(2H)-yl)methyl)-1-(oxetan-2-ylmethyl)-1H-benzo[d]imidazole-6-carboxylic add] | ≤ 1000
